The record followed here is the supplement of paper PMC11061612.

Assay [1] deals with A3-KAW (B-Cell Non-Hodgkin's Lymphoma). The experiment in a line: Bliss excess, mean over the matrix (fraction); higher = more synergy. A digest of the protocol:
(§1)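 Bliss excess equals the observed combination effect minus the expected value EA + EB − EA·EB, where EA and EB are the effects of each agent alone. Combination Emax is the second-highest inhibition within the matrix. Inhibition was scaled from CellTiter-Glo 2.0 luminescence, with 0 set by vehicle wells and 1 by blank wells, after 72 hours of two-drug dosing of cells plated in 1536-well plates.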

For assay [2], the system named is A549 (Lung Adenocarcinoma). Described as above. The method in brief:
as §1

The subject of assay [3] is CAS-1 (Glioblastoma). Described as above. The method in brief: as §1
Assay [4] deals with CCK-81 (Colorectal Carcinoma). Described as above. The method in brief: as §1
Assay [5] deals with COLO-320-HSR (Colorectal Carcinoma). The assay is described as above. A digest of the protocol: as §1
For assay [6], the system named is COR-L311 (Small Cell Lung Carcinoma). Described as above. A digest of the protocol:
as §1

The subject of assay [7] is ECC10 (Gastric Carcinoma). The description is as above. The method in brief:
as §1

The test system of assay [8] is Hs-445 (Non-Cancerous). Described as above. The method in brief:
as §1

In assay [9] the test system is NCI-H1666 (Lung Adenocarcinoma). Described as above. A digest of the protocol:
as §1

The subject of assay [10] is NCI-H1693 (Lung Adenocarcinoma). The description is as above. A digest of the protocol:
as §1

Assay [11] deals with NCI-H2066 (Squamous Cell Lung Carcinoma). The description is as above. The method in brief: as §1
Assay [12] concerns NCI-H64 (Small Cell Lung Carcinoma). The assay is described as above. The method in brief: as §1
Assay [13] deals with NY (Osteosarcoma). The assay is described as above. A digest of the protocol:
as §1

Assay [14] deals with PANC-10-05 (Pancreatic Carcinoma). Described as above. A digest of the protocol: as §1
Assay [15] deals with TT (Thyroid Gland Carcinoma). The assay is described as above. A digest of the protocol: as §1
The test system of assay [16] is TT2609-C02 (Thyroid Gland Carcinoma). The description is as above. A digest of the protocol:
as §1

For assay [17], the system named is VCaP (Prostate Carcinoma). The assay is described as above. A digest of the protocol:
as §1

In assay [18] the test system is NCI-H1693 (Lung Adenocarcinoma). In words: combination Emax (second highest fraction inhibited in the dose matrix, 72 h); higher = more inhibition; extreme values may be limits of the assay. The method in brief:
as §1

Assay [19] relates to NCI-H2141 (Small Cell Lung Carcinoma). The description is as above. The method in brief: as §1
The subject of assay [20] is SISO (Cervical Carcinoma). The description is as above. A digest of the protocol:
as §1

`CC1(C)CCC(CN2CCN(c3ccc(C(=O)NS(=O)(=O)c4ccc(NCC5CCOCC5)c([N+](=O)[O-])c4)c(Oc4cnc5[nH]ccc5c4)c3)CC2)=C(c2ccc(Cl)cc2)C1` [Venetoclax] + Cc1cc2ncnn2cc1Nc1ncc2c(n1)n(C1CCOCC1)c(=O)n2C [AZD7648] (first compound max 1 µM, 7x7, partner max 10 µM): the Bliss excess in assay [1] is 0.0185; in assay [2], -0.0445; in assay [3], -0.05; in assay [4], -0.0114; in assay [5], -0.0098; in assay [6] it was 0.0472. For the same compound, the Bliss excess is 0.0065 in assay [7]; -0.0081 in assay [8]; -0.0821 in assay [9]; 0.0211 in [10]; -0.0266 in assay [11]; -0.056 in assay [12]. The Bliss excess is 0.0011 in [13]; -0.0721 in [14]; -0.0161 in assay [15]; -0.0014 in assay [16]; -0.0248 in assay [17]. In addition, the “combination Emax” value in assay [18] stood at 0.26; in [19] it was 0.178; in [20], 0.164.

As to `CC1(C)CCC(CN2CCN(c3ccc(C(=O)NS(=O)(=O)c4ccc(NCC5CCOCC5)c([N+](=O)[O-])c4)c(Oc4cnc5[nH]ccc5c4)c3)CC2)=C(c2ccc(Cl)cc2)C1` [Venetoclax] + Cn1cnc2c(F)c(Nc3ccc(Br)cc3Cl)c(C(=O)NOCCO)cc21 [Selumetinib] (first compound max 1 µM, 7x7, partner max 3 µM), the Bliss excess in assay [1] was 0.0127; in assay [2], -0.0401; in [3] it was -0.035; in [4] it was 0.0338; in assay [5], -0.0062; in assay [6], -0.0367. In addition, the Bliss excess in assay [7] was 0.0364; in assay [8] it was 0.0401; in assay [9], 0.025; in assay [10] it was -0.0396; in assay [11] it was -0.0074; in assay [12], -0.0243. Besides, the Bliss excess was -0.0331 in assay [13]; -0.0386 in assay [14]; -0.0799 in [15]; -0.0518 in [16]; -0.0082 in [17]. Also, the results for the “combination Emax” value in [18], in assay [19] and in assay [20] were 0.26, 0.159 and 0.196, respectively.
